Experimental data as given in patent publication US6156700A, “3-(1,2-Benzisothiazol- and isoxazol-5-yl)-2,4(1H,3H)-pyrimidinedione or thione and 3-(1,2-benzisothiazol- and isoxazol-5-yl)-4(3H)-pyrimidinone or thione herbicidal agents” (American Cyanmid Company, priority 1998, dated 2000).
“And” between values parts separate entries of the source, which are not always exact repeats. Equal entries are not always repeated.

Experiments:
[1] = test system: IPOSS; experiment: Postemergence herbicidal evaluation; type: in vivo
[2] = test system: GLXMAW; experiment: Postemergence herbicidal evaluation; type: in vivo
[3] = test system: ZEAMX; experiment: Postemergence herbicidal evaluation; type: in vivo
[4] = test system: ECHCG; experiment: Postemergence herbicidal evaluation; type: in vivo
[5] = test system: ORYSAT; experiment: Preemergence herbicidal evaluation; type: in vivo, Oryza sativa; design: scale not given here
[6] = test system: CASOB; experiment: Postemergence herbicidal evaluation; type: in vivo
[7] = test system: GLXMA; experiment: Postemergence herbicidal evaluation; type: in vivo
[8] = test system: CHEAL; experiment: Postemergence herbicidal evaluation; type: in vivo
[9] = test system: IPOHE; experiment: Postemergence herbicidal evaluation; type: in vivo
[10] = test system: CHEAL; experiment: Preemergence herbicidal evaluation; type: in vivo; design: scale not given here
[11] = test system: CASOB; experiment: Preemergence herbicidal evaluation; type: in vivo; design: scale not given here
[12] = test system: IPOSS; experiment: Preemergence herbicidal evaluation; type: in vivo; design: scale not given here
[13] = test system: GLXMAW; experiment: Preemergence herbicidal evaluation; type: in vivo; design: scale not given here
[14] = test system: TRZAWR; experiment: Preemergence herbicidal evaluation; type: in vivo; design: scale not given here
[15] = test system: SETVI; experiment: Preemergence herbicidal evaluation; type: in vivo; design: scale not given here
[16] = test system: ABUTH; experiment: Preemergence herbicidal evaluation; type: in vivo; design: scale not given here
[17] = test system: GALAP; experiment: Preemergence herbicidal evaluation; type: in vivo; design: scale not given here
[18] = test system: ZEAMX; experiment: Preemergence herbicidal evaluation; type: in vivo; design: scale not given here
[19] = test system: ECHCG; experiment: Preemergence herbicidal evaluation; type: in vivo; design: scale not given here
[20] = test system: AMBEL; experiment: Preemergence herbicidal evaluation; type: in vivo; design: scale not given here
[21] = test system: TRZAWR; experiment: Postemergence herbicidal evaluation; type: in vivo
[22] = test system: GALAP; experiment: Postemergence herbicidal evaluation; type: in vivo
[23] = test system: SETVI; experiment: Postemergence herbicidal evaluation; type: in vivo
[24] = test system: ORYSAT; experiment: Postemergence herbicidal evaluation; type: in vivo, Oryza sativa
[25] = test system: ABUTH; experiment: Postemergence herbicidal evaluation; type: in vivo
[26] = test system: GLXMA; experiment: Preemergence herbicidal evaluation; type: in vivo
Procedure: The preemergence and postemergence herbicidal properties of certain compounds of the present invention are compared with certain compounds disclosed in U.S. Pat. Nos. 5,484,763 and 5,523,278. The evaluations are performed as described in Examples 185 and 186. Data in Tables V and VI are reported by the compound number given in Example 185 for the compounds of this invention or by comparative compound letter for the compounds disclosed in U.S. Pat. Nos. 5,484,763 and 5,523,278.

[27] = test system: AMBEL; experiment: Postemergence herbicidal evaluation; type: in vivo

O=C1C2=C(CCCC2)C(=O)N1c1ccc2snc(-c3ccccc3)c2c1 [A]
herbicidal effect rating ([1]; 0.0157-0.0160 kg/ha): 5.5 and 5.0
herbicidal effect rating ([1]; 0.0313-0.0320 kg/ha): 9.0 and 6.8
herbicidal effect rating ([1]; 0.0625-0.0640 kg/ha): 7.5
herbicidal effect rating ([1]; 0.1250 kg/ha): 8.4
herbicidal effect rating ([1]; 0.2500 kg/ha): 9.0
herbicidal effect rating ([1]; 0.5000 kg/ha): 9.0
herbicidal effect rating ([2]; 0.0157-0.0160 kg/ha): 4.0
herbicidal effect rating ([2]; 0.0313-0.0320 kg/ha): 4.0
herbicidal effect rating ([2]; 0.0625-0.0640 kg/ha): 4.6
herbicidal effect rating ([2]; 0.1250 kg/ha): 4.6
herbicidal effect rating ([2]; 0.2500 kg/ha): 4.6
herbicidal effect rating ([2]; 0.5000 kg/ha): 4.5
herbicidal effect rating ([3]; 0.0313-0.0320 kg/ha): 4.0 and 3.4
herbicidal effect rating ([3]; 0.0625-0.0640 kg/ha): 3.7
herbicidal effect rating ([3]; 0.1250 kg/ha): 4.2
herbicidal effect rating ([3]; 0.2500 kg/ha): 3.8
herbicidal effect rating ([3]; 0.5000 kg/ha): 4.0
herbicidal effect rating ([4]; 0.0157-0.0160 kg/ha): 1.0 and 0.5
herbicidal effect rating ([4]; 0.0313-0.0320 kg/ha): 1.0 and 0.6
herbicidal effect rating ([4]; 0.0625-0.0640 kg/ha): 1.0
herbicidal effect rating ([4]; 0.1250 kg/ha): 1.8
herbicidal effect rating ([4]; 0.2500 kg/ha): 2.7
herbicidal effect rating ([4]; 0.5000 kg/ha): 2.0
herbicidal effect rating ([5]; 0.0156-0.0160 kg/ha): 0.0
herbicidal effect rating ([5]; 0.0620-0.0630 kg/ha): 0.5
herbicidal effect rating ([5]; 0.1250 kg/ha): 0.5
herbicidal effect rating ([5]; 0.2500 kg/ha): 3.0
herbicidal effect rating ([5]; 0.5000 kg/ha): 3.0
herbicidal effect rating ([6]; 0.0625-0.0640 kg/ha): 7.9
herbicidal effect rating ([6]; 0.1250 kg/ha): 8.9
herbicidal effect rating ([6]; 0.2500 kg/ha): 9.0
herbicidal effect rating ([6]; 0.5000 kg/ha): 9.0
herbicidal effect rating ([7]; 0.0157-0.0160 kg/ha): 3.5
herbicidal effect rating ([7]; 0.0313-0.0320 kg/ha): 4.3
herbicidal effect rating ([8]; 0.0157-0.0160 kg/ha): 9.0 and 5.8
herbicidal effect rating ([8]; 0.0313-0.0320 kg/ha): 9.0 and 6.3
herbicidal effect rating ([8]; 0.0625-0.0640 kg/ha): 7.1
herbicidal effect rating ([8]; 0.1250 kg/ha): 7.9
herbicidal effect rating ([8]; 0.2500 kg/ha): 9.0
herbicidal effect rating ([8]; 0.5000 kg/ha): 9.0
herbicidal effect rating ([9]; 0.0157-0.0160 kg/ha): 5.0
herbicidal effect rating ([9]; 0.0313-0.0320 kg/ha): 5.7
herbicidal effect rating ([9]; 0.0625-0.0640 kg/ha): 6.0
herbicidal effect rating ([9]; 0.1250 kg/ha): 7.5
herbicidal effect rating ([10]; 0.0156-0.0160 kg/ha): 2.0
herbicidal effect rating ([10]; 0.0620-0.0630 kg/ha): 2.5
herbicidal effect rating ([10]; 0.1250 kg/ha): 5.0
herbicidal effect rating ([10]; 0.2500 kg/ha): 7.0
herbicidal effect rating ([10]; 0.5000 kg/ha): 9.0
herbicidal effect rating ([11]; 0.0156-0.0160 kg/ha): 0.0
herbicidal effect rating ([11]; 0.0313-0.0320 kg/ha): 0.0
herbicidal effect rating ([11]; 0.0620-0.0630 kg/ha): 0.0
herbicidal effect rating ([11]; 0.1250 kg/ha): 1.5
herbicidal effect rating ([11]; 0.2500 kg/ha): 2.0
herbicidal effect rating ([11]; 0.5000 kg/ha): 2.0
herbicidal effect rating ([12]; 0.0156-0.0160 kg/ha): 0.0
herbicidal effect rating ([12]; 0.0313-0.0320 kg/ha): 0.0
herbicidal effect rating ([12]; 0.0620-0.0630 kg/ha): 0.0
herbicidal effect rating ([12]; 0.1250 kg/ha): 0.0
herbicidal effect rating ([12]; 0.2500 kg/ha): 0.0
herbicidal effect rating ([12]; 0.5000 kg/ha): 2.0
herbicidal effect rating ([13]; 0.0313-0.0320 kg/ha): 0.0
herbicidal effect rating ([13]; 0.0620-0.0630 kg/ha): 0.0
herbicidal effect rating ([13]; 0.1250 kg/ha): 0.0
herbicidal effect rating ([13]; 0.2500 kg/ha): 0.0
herbicidal effect rating ([13]; 0.5000 kg/ha): 0.0
herbicidal effect rating ([14]; 0.0156-0.0160 kg/ha): 0.0
herbicidal effect rating ([14]; 0.0313-0.0320 kg/ha): 0.0
herbicidal effect rating ([14]; 0.0620-0.0630 kg/ha): 0.0
herbicidal effect rating ([14]; 0.1250 kg/ha): 0.0
herbicidal effect rating ([15]; 0.0156-0.0160 kg/ha): 0.0
herbicidal effect rating ([15]; 0.0313-0.0320 kg/ha): 0.0
herbicidal effect rating ([15]; 0.0620-0.0630 kg/ha): 0.0
herbicidal effect rating ([15]; 0.1250 kg/ha): 2.5
herbicidal effect rating ([15]; 0.2500 kg/ha): 2.0
herbicidal effect rating ([15]; 0.5000 kg/ha): 3.0
herbicidal effect rating ([16]; 0.0156-0.0160 kg/ha): 0.0
herbicidal effect rating ([16]; 0.0313-0.0320 kg/ha): 0.0
herbicidal effect rating ([16]; 0.0620-0.0630 kg/ha): 0.0
herbicidal effect rating ([16]; 0.1250 kg/ha): 5.0
herbicidal effect rating ([16]; 0.2500 kg/ha): 6.0
herbicidal effect rating ([16]; 0.5000 kg/ha): 7.0
herbicidal effect rating ([17]; 0.0313-0.0320 kg/ha): 5.5
herbicidal effect rating ([17]; 0.0620-0.0630 kg/ha): 4.5
herbicidal effect rating ([17]; 0.1250 kg/ha): 7.0
herbicidal effect rating ([17]; 0.2500 kg/ha): 9.0
herbicidal effect rating ([17]; 0.5000 kg/ha): 9.0
herbicidal effect rating ([18]; 0.0156-0.0160 kg/ha): 0.0
herbicidal effect rating ([18]; 0.0313-0.0320 kg/ha): 0.0
herbicidal effect rating ([18]; 0.0620-0.0630 kg/ha): 0.0
herbicidal effect rating ([18]; 0.1250 kg/ha): 0.0
herbicidal effect rating ([18]; 0.2500 kg/ha): 0.0
herbicidal effect rating ([18]; 0.5000 kg/ha): 0.0
herbicidal effect rating ([19]; 0.0156-0.0160 kg/ha): 0.0
herbicidal effect rating ([19]; 0.0313-0.0320 kg/ha): 0.0
herbicidal effect rating ([19]; 0.0620-0.0630 kg/ha): 0.0
herbicidal effect rating ([19]; 0.1250 kg/ha): 0.0
herbicidal effect rating ([19]; 0.2500 kg/ha): 0.0
herbicidal effect rating ([19]; 0.5000 kg/ha): 0.0
herbicidal effect rating ([20]; 0.0156-0.0160 kg/ha): 0.0
herbicidal effect rating ([20]; 0.0620-0.0630 kg/ha): 2.0
herbicidal effect rating ([20]; 0.1250 kg/ha): 3.5
herbicidal effect rating ([20]; 0.2500 kg/ha): 6.0
herbicidal effect rating ([20]; 0.5000 kg/ha): 5.0
herbicidal effect rating ([21]; 0.0157-0.0160 kg/ha): 2
herbicidal effect rating ([21]; 0.0313-0.0320 kg/ha): 3.8
herbicidal effect rating ([21]; 0.0625-0.0640 kg/ha): 4.0
herbicidal effect rating ([21]; 0.1250 kg/ha): 4.3
herbicidal effect rating ([22]; 0.0157-0.0160 kg/ha): 5.5 and 3.8
herbicidal effect rating ([22]; 0.0625-0.0640 kg/ha): 5.4
herbicidal effect rating ([22]; 0.1250 kg/ha): 6.4
herbicidal effect rating ([22]; 0.2500 kg/ha): 8.3
herbicidal effect rating ([22]; 0.5000 kg/ha): 9.0
herbicidal effect rating ([23]; 0.0157-0.0160 kg/ha): 1.0 and 1.2
herbicidal effect rating ([23]; 0.0313-0.0320 kg/ha): 1.0 and 1.6
herbicidal effect rating ([23]; 0.0625-0.0640 kg/ha): 2.1
herbicidal effect rating ([23]; 0.1250 kg/ha): 3.0
herbicidal effect rating ([23]; 0.2500 kg/ha): 2.7
herbicidal effect rating ([23]; 0.5000 kg/ha): 2.0
herbicidal effect rating ([24]; 0.0157-0.0160 kg/ha): 2.0
herbicidal effect rating ([24]; 0.0313-0.0320 kg/ha): 2.3 and 2.1
herbicidal effect rating ([24]; 0.0625-0.0640 kg/ha): 2.6
herbicidal effect rating ([24]; 0.1250 kg/ha): 2.9
herbicidal effect rating ([24]; 0.2500 kg/ha): 3.6
herbicidal effect rating ([24]; 0.5000 kg/ha): 4.5
herbicidal effect rating ([25]; 0.0313-0.0320 kg/ha): 9.0 and 7.8
herbicidal effect rating ([25]; 0.0625-0.0640 kg/ha): 8.6
herbicidal effect rating ([25]; 0.1250 kg/ha): 9.0
herbicidal effect rating ([25]; 0.2500 kg/ha): 9.0
herbicidal effect rating ([25]; 0.5000 kg/ha): 9.0
herbicidal effect rating ([26]; 0.0156-0.0160 kg/ha): 0.0
herbicidal effect rating ([26]; 0.0313-0.0320 kg/ha): 0.0
herbicidal effect rating ([27]; 0.0157-0.0160 kg/ha): 7.0 and 6.0
herbicidal effect rating ([27]; 0.0313-0.0320 kg/ha): 9.0 and 5.6
herbicidal effect rating ([27]; 0.0625-0.0640 kg/ha): 6.9
herbicidal effect rating ([27]; 0.1250 kg/ha): 7.0
herbicidal effect rating ([27]; 0.2500 kg/ha): 9.0
herbicidal effect rating ([27]; 0.5000 kg/ha): 9.0
